The values below come from patent US9315503B2, “Kinase inhibitors” (CHIESI FARMACEUTICI S.p.A., priority 2011, dated 2016).

pIC50: −log10 of the molar value. Counter-ions that a name gives are not always drawn.

One experiment has as its target T1, p38alpha (Homo sapiens, UniProt Q16539).
T1 construct: purchased Invitrogen PV3304
Kind of experiment: P38Alpha enzyme inhibition assay (Alphascreen kinase activity assay). Type of experiment: biochemical. The conditions noted are these: 100 pM p38alpha, 250 μM ATP, 2 hours pre-incubation at 25° C., read-out: p38α inhibition (IC50 values). How it is done: P38Alpha Enzyme Inhibition Assay.
The inhibitory activity of compounds was determined using an Alphascreen® (Perkin Elmer) based kinase activity assay. Kinase reactions consisted of 25 mM HEPES pH 7.5, 10 mM MgCl2, 100 μM Na3VO4, 2 mM DTT, 0.05 mg/ml Tween 20, 100 pM p38alpha (Invitrogen, PV3304), 1% DMSO and 0.3 μg/ml ATF-2 fusion protein (New England Biolabs, 9224). Compounds were incubated under these conditions for 2 hours, at 25° C., prior to the initiation of the kinase activity by the addition of the 250 μM ATP. Reaction volumes were 20 uL. After 1 hr at 25° C. reactions were stopped by the adding 10 uL of 25 mM HEPES pH 7.5 containing 62.5 mM EDTA, 0.05% Triton X-100, 10% BSA and 0.83 ng/uL anti-phospho-ATF2 antibody (Abeam, ab28812). Detection was performed by measuring luminescence following the addition of Alphascreen Donor beads (Perkin Elmer 6765300) and Protein A Alphascreen Acceptor beads (Perkin Elmer 6760137), both at a final concentration of 20 ug/ml. IC50 values were determined from concentration-response curves.
On the technique in general: Alpha assays give light when donor and acceptor beads are brought close together.

The test system of experiment [1] is LPS-stimulated TNFα release from PBMCs. Kind of experiment: LPS-stimulated PBMC TNFα release assay. Type of experiment: cell-based. The conditions noted are these: inhibition of TNFα release, human PBMCs, LPS 10 ng/ml, 18 h, ELISA, read-out: p38α inhibition (IC50 values). As for the experimental part:
LPS-Stimulated PBMC TNFα Release Assay.
Peripheral Blood Mononuclear Cells (PBMCs) were isolated from healthy human volunteer blood using a standard density gradient centrifugation technique. Citrated blood was placed onto Histopaque™ and centrifuged. The PBMCs were removed from the density gradient interface and washed in phosphate buffered saline (PBS). The PBMCs were suspended in RPMI 1640 medium (without serum), dispensed into a 96-well plate and incubated at 37° C. for 3 h in a humidified incubator. After incubation, the medium was replaced (with medium containing 1% foetal bovine serum) and the plate incubated at 37° C., for 1 h, in the presence of test compound or the appropriate vehicle. LPS (10 ng/ml), or an appropriate vehicle control, was then added to the cells and the plate returned to the incubator for 18 h. Cell-free supernatants were removed and assayed for TNFα levels using an ELISA kit from R&D Systems.
A dose response curve to each test compound was performed and the effect of compound in each experiment was expressed as a percentage inhibition of the control TNFα release. Dose response curves were plotted and compound potency (IC50) was determined. Compounds were tested in at least three separate experiments.

T1 sequence (Q16539 whole entry): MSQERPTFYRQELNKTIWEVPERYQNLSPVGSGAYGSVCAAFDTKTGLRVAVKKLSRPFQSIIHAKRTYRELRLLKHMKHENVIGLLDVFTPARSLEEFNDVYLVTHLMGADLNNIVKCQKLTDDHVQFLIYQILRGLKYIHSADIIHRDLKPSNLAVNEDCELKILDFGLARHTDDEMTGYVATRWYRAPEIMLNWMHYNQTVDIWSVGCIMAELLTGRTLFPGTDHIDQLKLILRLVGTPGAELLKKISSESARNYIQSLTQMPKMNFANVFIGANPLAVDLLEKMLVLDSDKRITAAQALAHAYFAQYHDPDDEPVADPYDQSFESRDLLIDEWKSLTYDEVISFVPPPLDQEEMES

In general, pIC50 refers to the IC50 on a negative log10 scale, so that one unit is a factor of ten. For `Cc1ccc(-n2nc(C(C)(C)C)cc2NC(=O)N[C@H]2CC[C@@H](Oc3ccc4nnc(CCN5CCCC5)n4c3)c3ccccc32)cc1` [Example 1, 1-(5-tert-Butyl-2-p-tolyl-2H-pyrazol-3-yl)-3-{(1S,4R)-4-[3-(2-pyrrolidin-1-yl-ethyl)-[1,2,4]triazolo[4,3-a]pyridin-6-yloxy]-1,2,3,4-tetrahydro-naphthalen-1-yl}-urea], the pIC50 at p38alpha was greater than 8.00; in experiment [1] it was 7.00 to 8.00.
As for `Cc1ccc(-n2nc(C(C)(C)C)cc2NC(=O)N[C@H]2CC[C@@H](Oc3ccc4nnc(CCN5CCN(C)CC5)n4c3)c3ccccc32)cc1` [Example 2, 1-(5-tert-Butyl-2-p-tolyl-2H-pyrazol-3-yl)-3-((1S,4R)-4-{3-[2-(4-methyl-piperazin-1-yl)-ethyl]-[1,2,4]triazolo[4,3-a]pyridin-6-yloxy}-1,2,3,4-tetrahydro-naphthalen-1-yl)-urea formate salt], the pIC50 is greater than 8.00 at p38alpha and 7.00 to 8.00 in experiment [1].
Turning to `Cc1ccc(-n2nc(C(C)(C)C)cc2NC(=O)N[C@H]2CC[C@@H](Oc3ccc4nnc(N5CCCCC5)n4c3)c3ccccc32)cc1` [Example 3], the pIC50 (on p38alpha; in experiment [1]) was greater than 8.00 each time.
Turning to `Cc1ccc(-n2nc(C(C)(C)C)cc2NC(=O)N[C@H]2CC[C@@H](Oc3ccc4nnc(CN5CCN(C)CC5)n4c3)c3ccccc32)cc1` [Example 14, 1-(5-tert-Butyl-2-p-tolyl-2H-pyrazol-3-yl)-3-{(1S,4R)-4-[3-(4-methyl-piperazin-1-ylmethyl)-[1,2,4]triazolo[4,3-a]pyridin-6-yloxy]-1,2,3,4-tetrahydro-naphthalen-1-yl}-urea formate salt], the pIC50 in experiment [1] was 7.00 to 8.00.
In the case of `Cc1ccc(-n2nc(C(C)(C)C)cc2NC(=O)N[C@H]2CC[C@@H](Oc3ccc4nnc(CN5CCOCC5)n4c3)c3ccccc32)cc1` [Example 15, 1-(5-tert-Butyl-2-p-tolyl-2H-pyrazol-3-yl)-3-[(1S,4R)-4-(3-morpholin-4-ylmethyl-[1,2,4]triazolo[4,3-a]pyridin-6-yloxy)-1,2,3,4-tetrahydro-naphthalen-1-yl]-urea formate salt], the pIC50 in experiment [1] was greater than 8.00.
The same measure, in the same setting: then `Cc1ccc(-n2nc(C(C)(C)C)cc2NC(=O)N[C@H]2CC[C@@H](Oc3ccc4nnc(CN5CCCC5)n4c3)c3ccccc32)cc1` [Example 16, 1-(5-tert-Butyl-2-p-tolyl-2H-pyrazol-3-yl)-3-[(1S,4R)-4-(3-pyrrolidin-1-ylmethyl-[1,2,4]triazolo[4,3-a]pyridin-6-yloxy)-1,2,3,4-tetrahydro-naphthalen-1-yl]-urea], with greater than 8.00; and `C[C@@H]1CCC[C@H](C)N1c1nnc2ccc(O[C@@H]3CC[C@H](NC(=O)NC4CC4)c4ccccc43)cn12` [Example 117, 1-Cyclopropyl-3-{(1S,4R)-4-[3-((2S,6R)-2,6-dimethyl-piperidin-1-yl)-[1,2,4]triazolo[4,3-a]pyridin-6-yloxy]-1,2,3,4-tetrahydro-naphthalen-1-yl}-urea formate salt], with greater than 8.00.
Turning to `C[C@H]1CCCCN1c1nnc2ccc(O[C@@H]3CC[C@H](NC(=O)Nc4cc(C(C)(C)C)nn4-c4cccc(CN5CCCC5)c4)c4ccccc43)cn12` [Example 171, 1-[5-tert-Butyl-2-(3-pyrrolidin-1-ylmethyl-phenyl)-2H-pyrazol-3-yl]-3-{(1S,4R)-4-[3-((S)-2-methyl-piperidin-1-yl)-[1,2,4]triazolo[4,3-a]pyridin-6-yloxy]-1,2,3,4-tetrahydro-naphthalen-1-yl}-urea formate salt], the pIC50 at p38alpha was greater than 8.00.
Take `C[C@H]1CCCCN1c1nnc2ccc(O[C@@H]3CC[C@H](NC(=O)Nc4cc(C(C)(C)C)nn4-c4ccc(CN5CCOCC5)cc4)c4ccccc43)cn12` [Example 176, 1-[5-tert-Butyl-2-(4-morpholin-4-ylmethyl-phenyl)-2H-pyrazol-3-yl]-3-{(1S,4R)-4-[3-((S)-2-methyl-piperidin-1-yl)-[1,2,4]triazolo[4,3-a]pyridin-6-yloxy]-1,2,3,4-tetrahydro-naphthalen-1-yl}-urea]: the pIC50 at p38alpha was greater than 8.00.
The same measure, in the same setting: then `C[C@H]1CCCCN1c1nnc2ccc(O[C@@H]3CC[C@H](NC(=O)Nc4cc(C(C)(C)C)nn4-c4ccc(CN5CCN(C)CC5)cc4)c4ccccc43)cn12` [Example 178, 1-{5-tert-Butyl-2-[4-(4-methyl-piperazin-1-ylmethyl)-phenyl]-2H-pyrazol-3-yl}-3-{(1S,4R)-4-[3-((S)-2-methyl-piperidin-1-yl)-[1,2,4]triazolo[4,3-a]pyridin-6-yloxy]-1,2,3,4-tetrahydro-naphthalen-1-yl}-urea partial formate salt], with greater than 8.00; and `C[C@H]1CCCCN1c1nnc2ccc(O[C@@H]3CC[C@H](NC(=O)Nc4cc(C(C)(C)C)nn4-c4ccc(CN5CCCC5)cc4)c4ccccc43)cn12` [Example 181, 1-[5-tert-Butyl-2-(4-pyrrolidin-1-ylmethyl-phenyl)-2H-pyrazol-3-yl]-3-{(1S,4R)-4-[3-((S)-2-methyl-piperidin-1-yl)-[1,2,4]triazolo[4,3-a]pyridin-6-yloxy]-1,2,3,4-tetrahydro-naphthalen-1-yl}-urea formate salt], with greater than 8.00.
Same read-out and setting: then `C[C@H]1CCCCN1c1nnc2ccc(O[C@@H]3CC[C@H](NC(=O)Nc4cc(C(C)(C)C)nn4-c4ccc(CN5CCCCC5)cc4)c4ccccc43)cn12` [Example 182, 1-[5-tert-Butyl-2-(4-piperidin-1-ylmethyl-phenyl)-2H-pyrazol-3-yl]-3-{(1S,4R)-4-[3-((S)-2-methyl-piperidin-1-yl)-[1,2,4]triazolo[4,3-a]pyridin-6-yloxy]-1,2,3,4-tetrahydro-naphthalen-1-yl}-urea formate salt], with greater than 8.00; and `C[C@H]1CCCCN1c1nnc2ccc(O[C@@H]3CC[C@H](NC(=O)Nc4cc(C(C)(C)C)nn4-c4ccc(CN5CCC(F)CC5)cc4)c4ccccc43)cn12` [Example 183, 1-{5-tert-Butyl-2-[4-(4-fluoro-piperidin-1-ylmethyl)-phenyl]-2H-pyrazol-3-yl}-3-{(1S,4R)-4-[3-((S)-2-methyl-piperidin-1-yl)-[1,2,4]triazolo[4,3-a]pyridin-6-yloxy]-1,2,3,4-tetrahydro-naphthalen-1-yl}-urea formate salt], with greater than 8.00; and `CCN(C)Cc1ccc(-n2nc(C(C)(C)C)cc2NC(=O)N[C@H]2CC[C@@H](Oc3ccc4nnc(N5CCCC[C@@H]5C)n4c3)c3ccccc32)cc1` [Example 184, 1-(5-tert-Butyl-2-{4-[(ethyl-methyl-amino)-methyl]-phenyl}-2H-pyrazol-3-yl)-3-{(1S,4R)-4-[3-((S)-2-methyl-piperidin-1-yl)-[1,2,4]triazolo[4,3-a]pyridin-6-yloxy]-1,2,3,4-tetrahydro-naphthalen-1-yl}-urea formate salt], with greater than 8.00.
As to `COCCN(C)Cc1ccc(-n2nc(C(C)(C)C)cc2NC(=O)N[C@H]2CC[C@@H](Oc3ccc4nnc(N5CCCC[C@@H]5C)n4c3)c3ccccc32)cc1` [Example 185, 1-[5-tert-Butyl-2-(4-{[(2-methoxy-ethyl)-methyl-amino]-methyl}-phenyl)-2H-pyrazol-3-yl]-3-{(1S,4R)-4-[3-((S)-2-methyl-piperidin-1-yl)-[1,2,4]triazolo[4,3-a]pyridin-6-yloxy]-1,2,3,4-tetrahydro-naphthalen-1-yl}-urea formate salt], the pIC50 on p38alpha was greater than 8.00.
